Assay results published in patent publication US20240400972A1, “Antifouling Composition and Process for Production Thereof” (priority 2015, published 2024).

How the values were obtained:
[1] = test system: extracellular proteases of PF-11 and NTC secretomes; format: biochemical; settings: 10 mM inhibitor, relatively to non-treated control
Procedure: Briefly, 12% SDS-polyacrylamide gels (Laemmli 1970) were co-polymerized with 1% casein or gelatin at 4° C. Non reducing loading buffer (62.5 mM Tris, 2% SDS, 10% glycerol, 0.001% bromophenol blue) was added to secretome samples prior to loading. Electrophoresis was performed at 4° C. and 100 V until the bromophenol dye reached the bottom of the gel. After electrophoresis, gels were rinsed two times in 2.5% (v/v) Triton X-100, 30 min each, for SDS removal, followed by three washes, 5 min each, in deionized water. Gels were then incubated in activation buffer (0.1M Tris-HCl, 0.01M CaCl2, pH 8), at 37° C. for enzyme renaturation and subsequent proteolytic activity. The gels were washed three times, 5 min each, in deonized water prior to incubation for 1 h in Coomassie Brilliant Blue R-250. […] Protease activity was visible as clear bands on a blue background. […] Protease inhibition by phenyl methyl sulfonyl fluoride (PMSF) and EDTA was determined as described by Bertolini and Rohovec (Bertolini and Rohovec 1992).
Further evaluations of the type of proteases present in the extracellular protease producers were performed by selective inhibition of serine proteases by PMSF and of metallo-proteases by EDTA.

[2] = test system: sea lice larvae and copepodids; assay: Sea lice larvae and copepodids viability bioassay; format: in vivo, Lepeophtheirus salmonis salmonis; settings: 70 ppm, positive control
Procedure: The assay consisted on incubating sea lice (Lepeophtheirus salmonis salmonis) larvae and copepodids with PF-11 secretome in order to evaluate the viability of the larvae and copepodids compared to a blank control. Sodium hypocholorite (NaoCl), known to kill the larvae within 40 min at 70 ppm, was used as a positive control. Larvae were obtained by sedating salmon sea lice with Benzocain, harvesting egg strings with tweezers, and transferring the strings to a water bath placed in an incubator. Inside the incubator, the water was continuously changed throughout the incubation period. When the larvae were developed, they were removed from the incubator and used in the bioassay. Copepodids were developed from egg strings from sea lice as described for larvae. Seawater containing louse larvae and copepodids was placed in a petri dish and PF-11 secretome was added to the final pretended concentration. Larvae and copepodids in seawater with no added compounds were also used for comparison. The positive control was NaOCl at 70 ppm. The larvae and copepodids viability was checked over time. An evaluation of larvae viability was performed and compared to the viability in the blank controls. The viability in the pure seawater control and the medium blank control was monitored and compared and remained the same throughout the experiment.

[3] = test system: sea lice larvae and copepodids; settings: 70 ppm; cited from earlier work
Strain PF-11 = format: cell-based, Pseudomonas putida; settings: CLSI standards, EUCAST resistance breakpoints
Procedure: MICS (Minimum Inhibitory Concentration) was determined by agar dilution and disk diffusion according to CLSI standards (CLSI, M02-A10; CLSI, M100-S21). Briefly, LA plates were prepared supplemented with serial dilutions of the antibiotic to be tested to determine the MIC. The lowest antibiotic concentration preventing growth of the strain is considered the MIC value. The strain Escherichia coli ATCC 25922 was used as control strain, as recommended.

Compound	susceptibility of strain PF-11 (Strain PF-11)	also measured
O=C(O)CN(CCN(CC(=O)O)CC(=O)O)CC(=O)O [EDTA]		inhibition of proteolytic activity of PF-11 and NTC secretomes [1]: strongly inhibited
[Na+].[O-]Cl [NaOCl, Sodium hypocholorite]		required time to become 100% effective [2]: 20 min; time to kill the larvae [3]: ≤ 40 min
O=S(=O)(F)Cc1ccccc1 [PMSF, phenyl methyl sulfonyl fluoride]		inhibition of proteolytic activity of PF-11 and NTC secretomes [1]: significantly lower inhibitory effects
CC1(C)S[C@@H]2[C@H](NC(=O)[C@H](N)c3ccc(O)cc3)C(=O)N2[C@H]1C(=O)O [amoxycillin]	resistant	
CC1(C)S[C@@H]2[C@H](NC(=O)[C@H](N)c3ccccc3)C(=O)N2[C@H]1C(=O)O [ampicilin]	resistant	
C[C@H]1[C@H](NC(=O)/C(=N\OC(C)(C)C(=O)O)c2csc(N)n2)C(=O)N1S(=O)(=O)O [aztreonam]	resistant	
CO/N=C(\C(=O)N[C@@H]1C(=O)N2C(C(=O)O)=C(COC(C)=O)CS[C@H]12)c1csc(N)n1 [cefotaxime]	resistant	
CO[C@@]1(NC(=O)Cc2cccs2)C(=O)N2C(C(=O)O)=C(COC(N)=O)CS[C@@H]21 [cefoxitine]	resistant	
CC(C)(O/N=C(\C(=O)N[C@@H]1C(=O)N2C(C(=O)[O-])=C(C[n+]3ccccc3)CS[C@H]12)c1csc(N)n1)C(=O)O [ceftazidime]	resistant	
